According to patent US20110319484A1, “NEUROPROTECTIVE COMPOUNDS” (Parque Tecnologico de Ciencias de la Salud, priority 2009, published 2011):

Legend:
[1] = tested on: human neuroblastoma SK-N-MC cells; assay: Inhibition of ROS production induced by xanthine/xanthine oxidase (H2DCFDA probe, LDH-normalized); format: cell-based; settings: XXO 10 μM-100 mU/ml, 3 h, at 10 μg/ml, inhibition observed at 10 and 20 μg/ml, read-out: maximum inhibition of ROS production relating to XXO
Description: The assay was performed on human neuroblastoma SK-N-MC cells in culture from the American Type Culture Collection (ATCC) (HTB-10), in all cases strict rules of sterility were followed and the manipulation was performed in class II biological safety cabinets following European standard EN 12469. The cells were maintained in Minimum Essential Medium Eagle (MEM) culture medium supplemented with 1 mM sodium pyruvate, 2 mM L-glutamine, 0.1 mM non-essential amino acids, 0.05 mg/ml gentamicin and 10% fetal bovine serum.
The inhibition by the NST0003 compound [(1S,3R,7S,8S,8aR)-1,2,3,7,8,8a-hexahydro-3,7-dimethyl-8-[2-[(2R,4R)-tetrahydro-4-hydroxy-6-oxo-2H-pyran-2-yl]ethyl-1-naphthalenyl propanoate] on the production of reactive oxygen species (ROS) in the SK-N-MC cells, was analyzed. […]
The cells were incubated (at 37° C. and 5% CO2) with these treatments for 3 h, after which time they were washed with HKRB buffer (20 mM HEPES, 103 mM NaCl, 4.77 mM KCl, 0.5 mM CaCl2, 1.2 mM MgCl2, 1.2 mM KH2PO4, 25 mM […], 15 mM glucose; at pH 7.3) after which the 2′,7′-dichlorodihydrofluorescein diacetate (H2DCFDA) probe was added at 30 μM diluted in HKRB buffer and it was incubated for another 2 hours in the same conditions. The reading of the plate was taken in a fluorometer at the conditions of 485 nm for excitation and 538 nm for emission. […]

HMG-CoA reductase enzyme = molecular target: T1, HMG-CoA reductase enzyme (Homo sapiens, UniProt P04035); assay: HMG-CoA reductase inhibition, spectrophotometric NADPH oxidation at 340 nm; format: biochemical; settings: for IC50: four independent assays, Trimmed Spearman-Karber method; for inhibition power of HMG-CoA reductase, times less than that of atorvastatin: relative to atorvastatin
T1 construct: the oxidation of the NADPH by the catalytic subunit of the HMG-CoA reductase
T1 sequence (P04035 340-888 limits assumed): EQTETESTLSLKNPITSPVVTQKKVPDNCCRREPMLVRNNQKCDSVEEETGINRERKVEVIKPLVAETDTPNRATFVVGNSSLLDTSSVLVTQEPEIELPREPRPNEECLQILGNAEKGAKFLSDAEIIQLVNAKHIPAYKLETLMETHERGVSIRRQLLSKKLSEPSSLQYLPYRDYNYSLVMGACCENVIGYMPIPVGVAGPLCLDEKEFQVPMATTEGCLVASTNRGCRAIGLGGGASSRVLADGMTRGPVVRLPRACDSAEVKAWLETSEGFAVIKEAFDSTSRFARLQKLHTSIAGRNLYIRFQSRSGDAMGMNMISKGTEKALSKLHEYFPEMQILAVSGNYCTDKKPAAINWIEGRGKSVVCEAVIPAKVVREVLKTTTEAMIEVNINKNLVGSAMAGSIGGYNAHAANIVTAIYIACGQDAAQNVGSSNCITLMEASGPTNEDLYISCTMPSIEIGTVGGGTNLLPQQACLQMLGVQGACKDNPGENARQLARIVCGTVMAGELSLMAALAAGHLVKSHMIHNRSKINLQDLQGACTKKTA
Source text: To that end, the degree of inhibition of the HMG-CoA reductase enzyme by the different (1S,3R,7S,8S,8aR)-1,2,3,7,8,8a-hexahydro-3,7-dimethyl-8-[2-[(2R,4R)-tetrahydro-4-hydroxy-6-oxo-2H-pyran-2-yl]ethyl-1-naphthalenyl propanoate derivatives, optionally mono- or di-methylated at the carbon in the alpha position of propanoic acid (NST0003, NST0004 and NST0005) was studied.
During the reaction, the HMG-CoA reductase uses NADPH as a reducing agent and 3-hydroxy-3-methylglutaryl coenzyme A (HMG-CoA) as a substrate. Mevalonic acid, which serves as a substrate for the following reaction in order to continue with the cholesterol synthesis, is obtained as a reaction product. The enzymatic reaction object of study is schematically shown as follows:
This in vitro assay is based on the spectrophotometric measurement of the decrease of absorbance at 340 nm, representing the oxidation of the NADPH by the catalytic subunit of the HMG-CoA reductase in the presence of the HMG-CoA reductase substrate. The assay was carried out in a 96-well plate, with a total reaction volume of 200 μl. The reaction buffer (50 mM KH2PO4, 1 M KCl, 2 mg/ml bovine serum albumin (BSA) and 5 mM DTT, at pH=7.3) was prepared at the time of carrying out the reaction and was maintained at 37° C.
Four independent assays were carried out. […] The concentrations of the reagents involved in the reaction mixture were the following: 0.2 mM HMG-CoA, 3 μU/reaction HMG-CoA reductase and 0.2 mM NADPH. After brief agitation, the reading of the plate was taken in a spectrophotometer at the conditions of 340 nm, 37° C., detecting the decrease of absorbance at 340 nm over time. The percentage of HMG-CoA reductase enzymatic activity with respect to the control was calculated. The IC50 was calculated with the data obtained by means of the Trimmed Spearman-Karber method (Version 1.5).

| Compound | inhibition at 10 µg/mL [1] [%] | IC50 (HMG-CoA reductase enzyme) [µM] | inhibition power of HMG-CoA reductase, times less than that of atorvastatin (HMG-CoA reductase enzyme) [times] |
| --- | --- | --- | --- |
| CCC(=O)O[C@H]1C[C@@H](C)C=C2C=C[C@H](C)[C@H](CC[C@@H]3C[C@@H](O)CC(=O)O3)[C@H]21 [NST0003, (1S,3R,7S,8S,8aR)-1,2,3,7,8,8a-hexahydro-3,7-dimethyl-8-[2-[(2R,4R)-tetrahydro-4-hydroxy-6-oxo-2H-pyran-2-yl]ethyl-1-naphthalenyl propanoate] | 33 | 40.6 | 170 |
| CC(C)C(=O)O[C@H]1C[C@@H](C)C=C2C=C[C@H](C)[C@H](CC[C@@H]3C[C@@H](O)CC(=O)O3)[C@H]21 [NST0004] |  | 23.2 | 100 |
| C[C@H]1C=C2C=C[C@H](C)[C@H](CC[C@@H]3C[C@@H](O)CC(=O)O3)[C@H]2[C@@H](OC(=O)C(C)(C)C)C1 [NST0005] |  | 0.865 | 4 |
